Legend:
full-length human KDAC6 = target: T1, full-length human KDAC6 (Homo sapiens, UniProt Q9UBN7); assay: Activity of KDAC6 with putative substrate peptides (verification of substrate preferences); type: biochemical; conditions: endpoint, 100 μM peptide, buffer also containing 100 mM KCl; for specific activity, KDAC6 with putative substrates: 50–200 nM KDAC, 25 °C, pH 7.6, 15–60 min, average ± SD, SD
T1 construct: A pFastbac1 construct containing full-length human KDAC6 (UniProtKB Q9UBN7) with a C-terminal His6 tag; His6 (C); made in house; host or cells: ExpiSf9 insect cells (baculovirus)
T1 sequence (Q9UBN7 1-1215): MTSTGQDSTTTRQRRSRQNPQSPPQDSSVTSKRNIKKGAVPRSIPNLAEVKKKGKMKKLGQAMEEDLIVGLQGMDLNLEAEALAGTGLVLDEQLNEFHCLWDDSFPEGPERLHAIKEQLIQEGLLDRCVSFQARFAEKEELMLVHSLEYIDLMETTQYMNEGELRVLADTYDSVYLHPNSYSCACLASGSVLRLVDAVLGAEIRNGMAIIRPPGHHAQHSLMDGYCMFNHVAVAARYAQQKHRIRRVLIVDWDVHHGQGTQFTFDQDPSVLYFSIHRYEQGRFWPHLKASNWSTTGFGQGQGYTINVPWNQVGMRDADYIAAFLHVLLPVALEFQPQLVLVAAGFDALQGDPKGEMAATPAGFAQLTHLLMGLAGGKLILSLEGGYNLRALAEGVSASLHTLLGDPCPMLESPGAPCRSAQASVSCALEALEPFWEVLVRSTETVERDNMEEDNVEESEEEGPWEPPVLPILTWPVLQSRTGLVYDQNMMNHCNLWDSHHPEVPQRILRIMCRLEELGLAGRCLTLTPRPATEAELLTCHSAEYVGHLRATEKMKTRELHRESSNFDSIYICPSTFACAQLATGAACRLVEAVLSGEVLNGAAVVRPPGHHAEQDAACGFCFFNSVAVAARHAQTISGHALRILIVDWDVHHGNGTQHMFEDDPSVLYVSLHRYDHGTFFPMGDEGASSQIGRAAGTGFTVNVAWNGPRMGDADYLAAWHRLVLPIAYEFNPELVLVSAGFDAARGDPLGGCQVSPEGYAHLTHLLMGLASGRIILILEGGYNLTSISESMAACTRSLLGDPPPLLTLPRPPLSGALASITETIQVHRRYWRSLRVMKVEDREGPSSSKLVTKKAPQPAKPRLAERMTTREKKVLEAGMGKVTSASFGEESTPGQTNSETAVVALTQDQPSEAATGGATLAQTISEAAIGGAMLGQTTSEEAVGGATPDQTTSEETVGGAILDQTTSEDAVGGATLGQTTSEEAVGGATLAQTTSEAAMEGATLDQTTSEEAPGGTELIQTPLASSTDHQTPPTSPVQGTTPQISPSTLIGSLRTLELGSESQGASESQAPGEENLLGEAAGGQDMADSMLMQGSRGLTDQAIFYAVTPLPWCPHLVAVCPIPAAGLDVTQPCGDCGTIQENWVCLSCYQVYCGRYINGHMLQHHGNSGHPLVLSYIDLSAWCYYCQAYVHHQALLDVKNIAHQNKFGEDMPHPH
Experimental: (§1) Peptide substrates were synthesized to >95% purity (GenScript) with N-terminal acetylation and C-terminal amidation. For endpoint experiments, 100 μM peptide substrates were reacted with 50–200 nM KDAC at 25 °C at pH 7.6 for 15–60 min. Deacetylation was measured using a fluorescamine-based assay that was previously described in detail.[18] Reported raw activity for each enzyme–substrate pair is the average and standard deviation for n ≥ 4 unless otherwise noted. Normalized activity was calculated by defining the activity of each KDAC with the FRK^acWR peptide equal to 1. Statistical significance was determined by calculating p values using two-tailed t-tests, assuming similar variance. The significance threshold was set at p ≤ 0.01 with the Bonferroni correction for multiple testing. Kinetic parameters were determined for a subset of enzyme–substrate pairs. In these experiments, 50–200 nM KDAC was reacted with ≥5 substrate concentrations from 10 to 2500 nM and ≥3 timepoints at intervals of 3–20 min were collected for each substrate concentration. Deacetylation was measured using the same method as the endpoint experiments, and KM and kcat were calculated from the observed activity of each reaction as previously described.[18] Activity assays with peptides for verification of substrate preferences were performed as for endpoint experiments, except in a buffer also containing 100 mM KCl. Statistical analysis of the correlation of the presence of particular substrate residues with activity was performed using Fisher’s exact test with a significance threshold of p ≤ 0.05.
In contrast with the peptides tested thus far, which were all derivatives of a single substrate, these panels consisted of peptides derived from human proteins in which the lysine residue is known to be acetylated in cells.[3],[5],[42],[50]−[72] For each enzyme, peptides were included either because they contained an acetyllysine that has been identified as a putative substrate of the KDAC from published cellular studies and/or because the peptide contained a residue that appeared to drive KDAC activity in our analysis. For KDAC6, we observed that of the set of peptides that were tested, six contained tryptophan or tyrosine directly after the acetyllysine. Remarkably, all of these peptides appeared in the top seven most reactive substrates tested (Table 2). Assuming that phenylalanine would behave similarly to tryptophan and tyrosine, we determined that there was a statistically significant correlation between whether or not a peptide was deacetylated by KDAC6 and the presence of tyrosine, tryptophan, or phenylalanine in the +1 position (p = 0.011). […] Thus, our conclusion that the presence of these aromatic residues in the +1 position relative to the acetyllysine is a major factor promoting KDAC6 activity has predictive utility and provides some understanding of the underlying mechanistic basis.

Full-length human KDAC8 = target: T2, Full-length human KDAC8 (Homo sapiens, UniProt Q9BY41); assay: Activity of KDAC8 with putative substrate peptides (verification of substrate preferences); type: biochemical; conditions: endpoint, 100 μM peptide, buffer also containing 100 mM KCl; for specific activity, KDAC8 with putative substrates (no activity above limit): limit of reliable detection 0.0004 s^–1; for specific activity, KDAC8 with putative substrates: 50–200 nM KDAC, 25 °C, pH 7.6, 15–60 min, average ± SD, SD
T2 construct: Full-length human KDAC8 (UniProtKB Q9BY41) was recombinantly expressed fused to a C-terminal His6 tag; TEV protease cleavage site (C); His6 (C); made in house; host or cells: Escherichia coli
T2 sequence (Q9BY41 1-377): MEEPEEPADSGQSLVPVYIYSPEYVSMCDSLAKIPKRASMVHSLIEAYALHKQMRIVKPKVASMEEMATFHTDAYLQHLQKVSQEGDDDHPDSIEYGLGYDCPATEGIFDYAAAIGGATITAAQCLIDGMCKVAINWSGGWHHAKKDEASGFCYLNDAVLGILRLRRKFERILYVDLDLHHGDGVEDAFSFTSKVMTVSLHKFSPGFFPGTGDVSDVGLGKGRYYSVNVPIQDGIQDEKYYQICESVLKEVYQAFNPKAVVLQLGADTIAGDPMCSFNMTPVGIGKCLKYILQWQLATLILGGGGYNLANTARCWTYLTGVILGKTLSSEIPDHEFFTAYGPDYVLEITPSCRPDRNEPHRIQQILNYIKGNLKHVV
Experimental: as §1
We performed a similar experiment for KDAC8, this time using substrates that have been described as potential KDAC8 substrates from cell-based studies or which contained residues in the +1 and/or +2 positions that were identified to enhance activity of KDAC8. […] In addition, we also considered phenylalanine, as we did for KDAC6. Here, we looked at the correlation between peptides having any of these features and activity. While the result was less striking than for KDAC6, there was still a positive correlation between the presence of the identified residues and activity (Table 3; p = 0.048). Although we have identified only a portion of the interactions that likely contribute to substrate selectivity for these enzymes, these interactions correlate with a statistically significant increase in activity with peptides from potential biological substrates in an unbiased background of residues in other positions.

Substance | specific activity, KDAC6 with putative substrates (full-length human KDAC6) [s^–1] | specific activity, KDAC8 with putative substrates (no activity above limit) (Full-length human KDAC8) | specific activity, KDAC8 with putative substrates (Full-length human KDAC8) [s^–1] | specific activity, KDAC6 with putative substrates (no activity above limit) (full-length human KDAC6; limit of reliable detection 0.0013 s^–1)
SDMK^acHWP [acetyllysine peptide from heat shock 70 kDa protein 1A/1B (P0DMV8/P0DMV9)] | 0.013 ± 0.009 | – (– indicates no activity above the limit of reliable detection (0.0004 s^–1)) |  | 
GRAK^acYWL [acetyllysine peptide from E3 SUMO-protein ligase RanBP2 (P49792)] | 0.100 ± 0.009 |  | 0.007 ± 0.003 | 
LSGK^acEIN [acetyllysine peptide from serine/arginine-rich splicing factor 5 (Q13243)] | 0.024 ± 0.005 | – (– indicates no activity above the limit of reliable detection (0.0004 s^–1)) |  | 
TGNK^acYVP [acetyllysine peptide from tubulin β-3 chain (Q13509)] | 0.10 ± 0.04 |  | 0.0011 ± 0.0006 | 
AFGK^acYCR | 0.20 ± 0.09 |  | 0.0029 ± 0.0004 | 
SHLK^acAHL [acetyllysine peptide from transcription factor Sp7 (Q8TDD2)] | 0.024 ± 0.013 | – (– indicates no activity above the limit of reliable detection (0.0004 s^–1)) |  | 
GTAK^acSVT [acetyllysine peptide from cellular tumor antigen p53 (P04637)] |  | – (– indicates no activity above the limit of reliable detection (0.0004 s^–1)) |  | – (– indicates no activity above the limit of reliable detection (0.0013 s^–1))
GVGK^acYIN [acetyllysine peptide from RING-type E3 ubiquitin-protein ligase PPIL2 (Q13356)] | 0.055 ± 0.024 | – (– indicates no activity above the limit of reliable detection (0.0004 s^–1)) |  | 
QLSK^acWP [acetyllysine peptide from forkhead box protein O3 (O43524)] | 0.14 ± 0.03 |  | 0.020 ± 0.006 | 

— publication PMC10157890, “Lysine Deacetylase Substrate Selectivity: Distinct Interaction Surfaces Drive Positive and Negative Selection for Residues Following Acetyllysine” (Biochemistry, 2023)
